Measurements: PubChem BioAssay AID1626 (SRMLSC, 2009)

System: M. tuberculosis H37Rv growth inhibition
Test: M. tuberculosis H37Rv growth inhibitors, H37Rv strain (AID 1626)
Conditions: for IC90: measured here: IC90 against H37Rv; for CC50: measured here: Vero cell cytotoxicity

Structure (SMILES)	IC50 [µM]	IC90 [µM]	CC50 [µM]
CNc1nc(-c2ccccn2)nnc1-c1ccccc1	8.5	11.1	11.3
O=C1CCNc2ccc(-c3ccccc3)cc21	–	> 100	–
CCOc1ccc(N=Cc2c(O)n(C(C)(C)C)c(=O)[nH]c2=O)cc1	< 0.195	> 100	–
COc1ccc(NC(=O)c2ccc(-c3ccc([N+](=O)[O-])cc3)o2)cc1	–	> 100	–
O=C(Nc1cc(Oc2ccccc2)cc([N+](=O)[O-])c1)C12CC3CC(C1)CC(n1cnc(Cl)n1)(C3)C2	4.19	> 100	> 40
O=C(Nc1nnc(-c2ccncc2)o1)c1ccc(Br)s1	15	29.7	20.6
O=C1N=C(N2CCN(c3cccc4ccccc34)CC2)S/C1=C/c1cccs1	–	–	> 40
CC(=O)Nc1cccc(C(=O)/C=C/c2ccc(Br)cc2)c1	6.48	9.82	10.7
CN1/C(=C\C(=O)c2cccs2)Sc2ccccc21	5.65	13.6	> 40
CC[C@H](CO)NCCN[C@H](CC)CO	0.778	> 100	–
CN(CCCC[C@H](CNCc1ccc(-c2ccccc2)cc1)N1C[C@H](c2ccccc2)N(CCc2ccc(Cl)c(Cl)c2)C(=O)C1=O)Cc1ccc(-c2ccccc2)cc1	5.07	5.61	6.12
O=C(Nc1ccccc1OC(=O)c1ccc(Cl)cc1)c1ccc(Cl)cc1	12	18.6	–
Cc1ccc(-c2nnc(N3CCN(C(=O)c4ccco4)CC3)c3ccccc23)cc1	7.44	13.8	–
O=c1[nH][nH]c(-c2ccccc2O)c1C(C[N+](=O)[O-])c1ccc(Cl)cc1Cl (stereo not given)	10.5	15	> 40
N=C1/C(=C/c2ccc(OC(=O)c3ccco3)cc2)C(=O)N=C2SC=CN12	–	> 100	–
Nc1ccc2c(c1)C(=O)C(=O)c1ccccc1-2	0.401	13.5	3.16
CCN(CC)CCOC(=O)c1ccc(N/C=C(/C#N)c2nc(-c3ccc4c(c3)OCO4)cs2)cc1	13.5	22.6	7.2
O=C(Oc1ccc(-c2cnc3ccccc3n2)cc1)c1ccc(Cl)c([N+](=O)[O-])c1	5.25	23.4	–
COc1ccc(-c2nc(NC(=O)c3cc(C(C)(C)C)nn3C)sc2C)cc1	4.42	8.83	> 40
CCCCCOC(=O)NCCOC(=O)Nc1ccc(C(=O)OCC)cc1	< 0.195	> 100	> 40
CCCNC(=O)c1nnsc1S(=O)c1ccc(Cl)cc1 (stereo not given)	8.74	10.5	8.53

Structure (SMILES)	IC50 [µM]	IC90 [µM]	CC50 [µM]
CCOC(=O)c1ccc(N2CSC3=C(C#N)C(c4cccs4)CC(=O)N3C2)cc1 (stereo not given)	30.5	> 100	–
Cc1ccc(CN2CCSc3ccc(C(=O)NC4CCN(Cc5ccccc5)CC4)cc32)cc1	–	–	18.4
O=C(Nc1ccn(Cc2ccccc2F)n1)c1ccc(COc2ccc(Cl)cc2Cl)o1	33.9	> 100	> 40
Cc1sc2nc(CN(C(=O)NC3CCCCC3)C3CCCC3)[nH]c(=O)c2c1C	6.11	26.3	> 40
CCOC(=O)C1=C(c2ccccc2)N=c2s/c(=C\c3ccc(O)cc3)c(=O)n2C1c1cccs1 (stereo not given)	8.75	> 100	> 40
O=C(NCc1nc(-c2ccc(C(F)(F)F)cc2)no1)Nc1cc(Cl)cc(Cl)c1	5.74	10.6	12.6
Cc1nc(N2CCN(Cc3ccc4c(c3)OCO4)CC2)c2cc(-c3ccccc3)sc2n1	5.39	6.08	> 40
COc1ccc(/C=C2\Sc3ccc(C(=O)NCc4cccnc4)cc3N(C)C2=O)cc1OC	13	31.1	–
Cc1ccc2nc(-c3ccccn3)c(Nc3ccccc3C)n2c1	1.52	2.24	3.42
CC(NC(=O)c1ccc(Br)cc1)c1ccc2c(c1)CCCC2 (stereo not given)	15.4	> 100	–
COc1ccc(N=c2cc(-c3ccc(O)cc3)oc3ccccc23)cc1	5.8	9.5	34.3
CCOC(=O)C1(CCOc2ccccc2)CCN(C(=O)c2ccc(-n3cccn3)cc2)CC1	27.2	> 100	> 40
CCOC(=O)c1cccc(N/C=C/C(=O)c2ccc(OC)c(OC)c2)c1	24	> 100	–
Cc1nc(SCC(=O)Nc2ccc(OCc3ccccc3)cc2)n[nH]1	0.406	> 100	–
CC1CCN(c2nc(/C=C/c3ccccc3)nc3ccccc23)CC1	10.1	12.8	> 40
CCOC(=O)CSc1nnc(-c2cccc(Br)c2)o1	0.486	15.2	–
O=c1oc2ccccc2nc1/C=C(\O)c1ccc(Br)cc1	3.56	> 100	–
COc1ccc(OCC(=O)Nc2ccc3nc(C)sc3c2)cc1	10.7	> 100	–
CCOc1ccc(N=Cc2c(O)n(-c3cc(C)cc(C)c3)c(=O)[nH]c2=O)cc1	< 0.195	> 100	–
COc1cc(NC(=O)c2c(F)c(F)c(F)c(F)c2F)c(OC)cc1Cl	0.738	> 100	> 40
COc1cccc(-c2nnc(Nc3nc4c(F)cccc4s3)o2)c1	1.56	51.8	> 40

Structure (SMILES)	IC50 [µM]	IC90 [µM]	CC50 [µM]
CC(=O)c1ccc(NC(=O)CSCC(=O)Nc2ccc3ccccc3c2)cc1	51	> 100	–
O=C(c1ccccc1)C1CN(Cc2ccccc2)CCC1(O)c1ccccc1 (stereo not given)	24.8	28.2	–
COC(=O)CSc1nc(N)c2c3c(sc2n1)C(c1ccccc1)SC(c1ccccc1)C3 (stereo not given)	14.4	> 100	7.1
N#Cc1nc(-c2cccs2)oc1NCCc1ccccc1	1.97	5.43	–
O=c1c2cc(Cl)ccc2oc2nc3n(c(=O)c12)CCCS3	0.803	8.71	–
Cc1cc(C)n(-c2nc(NC(C)C)nc(NC(C)C)n2)n1	0.961	3.94	> 40
CC1CCN(c2nc(CN3CCCCC3)nc3scc(-c4ccccc4)c23)CC1	9.11	11.9	34.9
Cc1ccc(Oc2cc(NC(=O)CCCn3nc(C)c([N+](=O)[O-])c3C)cc([N+](=O)[O-])c2)cc1	2.33	3.34	> 40
CCC(=O)Nc1nc2ccccc2n1Cc1ccc(C)cc1	1.39	11	> 40
Cc1ccc(NC(=O)COc2ccc(-n3ccnc3)cc2)cc1Cl	3.82	12.2	–
O=C(Oc1ccc2ccc(O)cc2c1)C1CCCCC1	–	> 100	–
CC1CCN(c2ccc(C=O)o2)CC1	55.9	> 100	–
COc1ccc(/C=C/C(=O)c2ccc(C)c([N+](=O)[O-])c2)cc1O	–	> 100	34.8
O=C(Oc1cccc(-c2cnc3ccccc3n2)c1)c1ccco1	1.39	> 100	–
C=CCn1c(COc2ccc3c(c2)CCCC3)nnc1SCC(=O)Nc1cccc(SC)c1	–	> 100	–
COc1ccc(N=Cc2c(O)ccc3ccccc23)cc1	–	> 100	–
COc1ccc(NCc2n[nH]nc2-c2ccccc2)cc1Cl	25.7	> 100	> 40
COc1ccccc1N1CCN(c2nc(C)nc3c2oc2ccccc23)CC1	1.74	3.89	5.01
CCCSc1ccc(C(=O)Nc2ccc(Cl)cc2)cn1	27.9	> 100	–
CC(C)c1ccc2nc(N)sc2c1	43.3	> 100	> 40
Cc1nc2ccc(NC(=O)N(C(C)C)C(C)C)cc2s1	20.2	> 100	–

Structure (SMILES)	IC50 [µM]	IC90 [µM]	CC50 [µM]
CCC(C)NC(=O)c1c(N)n(/N=C/c2ccccn2)c2nc3ccccc3nc12 (stereo not given)	5.18	7.46	> 40
O=[N+]([O-])c1cccn2cc(-c3ccc(Br)cc3)nc12	18.8	> 100	27.1
Cc1ccc(N=Nc2ccc(O)c3ncccc23)cc1C	14.1	> 100	3.1
C[n+]1c2n(c3ccccc31)N=C(c1cc(C(C)(C)C)c(O)c(C(C)(C)C)c1)CS2	2.54	3.14	> 40
O=C(Nc1nnc(C2=COCCO2)o1)c1ccc(Cl)cc1	2.71	4.41	> 40
Cc1[nH]n(-c2ccc(Cl)cc2)c(=O)c1N=Nc1cccnc1	3.39	> 100	36.1
Nc1cnc(-c2ccccc2)nc1Cl	7.27	> 100	–
CCN(CC)CCOC(=O)c1ccc(N/C=C(/C#N)c2nc(-c3cccc(OC)c3)cs2)cc1	4.42	20.2	10.8
COC(=O)CSc1nnc(-c2ccc(OC)cc2OC)o1	1.76	4.54	–
COc1ccc(C(C[N+](=O)[O-])n2nc(C)cc2C)cc1 (stereo not given)	–	–	> 40
Cc1cccn2c(=O)c3cc(C(=O)NCc4ccco4)c(=N)n(CCc4ccccc4)c3nc12	9.99	21.2	18.8
Brc1c(CSc2nncc3ccccc23)nc2ccccn12	5.58	16.3	> 40
O=C(Nc1ccc2c(c1)OCCO2)c1cccc2nc3ccccc3nc12	< 0.195	2.17	> 40
Oc1ccccc1N=Cc1ccc[nH]1	3.04	6.39	> 40
Cc1nc(NC(=O)CSc2nnc(-c3ccc4c(c3)OCO4)o2)c(Cl)cc1Cl	–	> 100	–
c1coc(CNc2nc(N3CCCCC3)nc3ccccc23)c1	1.49	1.69	> 40
COC(=O)c1ccc(C(=O)OC)c(NC(=O)CN2CCN(c3ccccc3)CC2)c1	66.1	> 100	> 40
Cc1c(C(=O)Oc2cccc3cccnc23)cccc1[N+](=O)[O-]	6.52	7.5	> 40
c1ccc2c(NC3C4CC5CC(C4)CC3C5)nc(N3CCOCC3)nc2c1 (stereo not given)	1.89	3.08	27.9
